Structures are written as SMILES. Where a name gives a salt, the structure may show the parent alone.

The values below come from patent US9624214B2, “Amino-substituted imidazo[1,2-a]pyridinecarboxamides and their use” (BAYER PHARMA AKTIENGESELLSCHAFT, priority 2012, dated 2017).

This test has as its target T1, recombinant guanylate cyclase reporter cell line (Rattus norvegicus, UniProt P19686+P20595).
T1 construct: expressed in transfected cells
T1 sequence (P20595 1-619): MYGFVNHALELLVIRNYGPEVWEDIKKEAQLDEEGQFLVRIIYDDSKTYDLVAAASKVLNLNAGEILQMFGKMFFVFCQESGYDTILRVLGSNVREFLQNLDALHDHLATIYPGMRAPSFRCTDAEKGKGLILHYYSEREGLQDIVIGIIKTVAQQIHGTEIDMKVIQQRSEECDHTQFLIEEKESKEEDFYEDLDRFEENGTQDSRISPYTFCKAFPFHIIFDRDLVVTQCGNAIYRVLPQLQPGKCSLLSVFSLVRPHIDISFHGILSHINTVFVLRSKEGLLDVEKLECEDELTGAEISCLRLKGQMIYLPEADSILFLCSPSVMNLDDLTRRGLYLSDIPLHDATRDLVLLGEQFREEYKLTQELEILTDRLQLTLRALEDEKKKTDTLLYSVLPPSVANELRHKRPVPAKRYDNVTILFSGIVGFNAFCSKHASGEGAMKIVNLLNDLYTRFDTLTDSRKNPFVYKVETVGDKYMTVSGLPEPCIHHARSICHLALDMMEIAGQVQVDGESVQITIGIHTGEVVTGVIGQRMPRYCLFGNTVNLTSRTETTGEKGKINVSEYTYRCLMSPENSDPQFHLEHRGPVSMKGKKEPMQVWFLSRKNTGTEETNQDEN
T1 sequence (P19686 1-690): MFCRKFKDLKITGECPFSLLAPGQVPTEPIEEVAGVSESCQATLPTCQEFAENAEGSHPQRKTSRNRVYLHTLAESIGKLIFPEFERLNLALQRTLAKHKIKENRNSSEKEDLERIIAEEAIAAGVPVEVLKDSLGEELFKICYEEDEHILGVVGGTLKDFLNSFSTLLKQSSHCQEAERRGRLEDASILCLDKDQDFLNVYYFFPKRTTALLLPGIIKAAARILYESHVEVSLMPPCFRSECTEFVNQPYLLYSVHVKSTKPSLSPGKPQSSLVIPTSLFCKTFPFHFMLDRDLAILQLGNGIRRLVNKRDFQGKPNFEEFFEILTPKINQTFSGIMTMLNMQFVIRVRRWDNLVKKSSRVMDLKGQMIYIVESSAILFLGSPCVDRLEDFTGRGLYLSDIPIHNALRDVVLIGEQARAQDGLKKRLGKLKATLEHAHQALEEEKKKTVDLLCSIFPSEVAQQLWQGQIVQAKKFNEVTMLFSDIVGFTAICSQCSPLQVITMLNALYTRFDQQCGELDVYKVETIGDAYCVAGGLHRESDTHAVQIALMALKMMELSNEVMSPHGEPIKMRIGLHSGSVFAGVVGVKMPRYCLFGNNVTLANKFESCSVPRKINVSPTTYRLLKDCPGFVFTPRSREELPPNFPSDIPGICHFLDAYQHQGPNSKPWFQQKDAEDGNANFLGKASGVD
The experiment in a line: B-2. Action on recombinant guanylate cyclase reporter cell line. It counts as cell-based. As to conditions: MEC = minimal effective concentration; in some cases mean values from individual determinations. The method, boiled down:
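MEC values, meaning the lowest concentration producing a detectable response, were taken from a recombinant cyclase reporter cell assay. Where repeated, individual determinations were averaged.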

With `Cc1cc(OCc2c(F)cccc2F)c2nc(C)c(C(=O)NCC3(N)CC3)n2c1` [Example 40, N-[(1-aminocyclopropyl)methyl]-8-[(2,6-difluorobenzyl)oxy]-2,6-dimethylimidazo[1,2-a]-pyridine-3-carboxamide], the MEC was determined as 0.10 µM.
With `Cc1nc2c(OCc3c(F)cccc3F)cccn2c1C(=O)NCC1(N)CCCC1` [Example 41, N-[(1-aminocyclopentyl)methyl]-8-[(2,6-difluorobenzyl)oxy]-2-methylimidazo[1,2-a]-pyridine-3-carboxamide], the MEC was 0.30 µM.
The figure for `Cc1nc2c(OCc3c(F)cccc3F)cc(Cl)cn2c1C(=O)NCC1(N)CCCC1` [Example 42, N-[(1-aminocyclopentyl)methyl]-6-chloro-8-[(2,6-difluorobenzyl)oxy]-2-methylimidazo[1,2-a]pyridine-3-carboxamide] is 1.00 µM.
As for `Cc1nc2c(OCC3CCCCC3)cccn2c1C(=O)NC(CN)c1ccc(F)cc1F` (stereo not drawn) [Example 45, ent-N-[2-Amino-1-(2,4-difluorophenyl)ethyl]-8-(cyclohexylmethoxy)-2-methylimidazo[1,2-a]-pyridine-3-carboxamide], the MEC was 1.00 µM.
The figure for `Cc1cc(OCc2c(F)cccc2F)c2nc(C)c(C(=O)NC(C)CN)n2c1` (stereo not drawn) [Example 48, ent-N-(1-Aminopropan-2-yl)-8-[(2,6-difluorobenzyl)oxy]-2,6-dimethylimidazo[1,2-a]pyridine-3-carboxamide] is 1.00 µM.
Turning to `Cc1cc(OCc2c(F)cccc2F)c2nc(C)c(C(=O)NC(CN)c3ccc(F)c(F)c3)n2c1` (stereo not drawn) [Example 51, ent-N-[2-Amino-1-(3,4-difluorophenyl)ethyl]-8-[(2,6-difluorobenzyl)oxy]-2,6-dimethylimidazo-[1,2-a]pyridine-3-carboxamide], the MEC stood at 0.20 µM.
As for `Cc1nc2c(OCc3c(F)cccc3F)cc(F)cn2c1C(=O)NC(CN)c1ccc(F)c(F)c1` (stereo not drawn) [Example 53, ent-N-[2-Amino-(3,4-difluorophenyl)ethyl]-8-[(2,6-difluorobenzyl)oxy]-6-fluoro-2-methylimidazo[1,2-a]pyridine-3-carboxamide], the MEC was found to be 0.30 µM.
Take `NCC(NC(=O)c1c(C2CC2)nc2c(OCc3c(F)cccc3F)cccn12)c1ccc(F)c(F)c1` (stereo not drawn) [Example 54, ent-N-[2-amino-1-(3,4-difluorophenyl)ethyl]-2-cyclopropyl-8-[(2,6-difluorobenzyl)oxy]-imidazo[1,2-a]pyridine-3-carboxamide]: the MEC came to 1.00 µM.
Consider `NCC(NC(=O)c1cnc2c(OCc3c(F)cccc3F)cccn12)c1ccc(F)c(F)c1` (stereo not drawn) [Example 55, ent-N-[2-amino-1-(3,4-difluorophenyl)ethyl]-8-[(2,6-difluorobenzyl)oxy]imidazo[1,2-a]pyridine-3-carboxamide dihydrochloride], for which the MEC came to 2.00 µM.
For the compound `Cc1nc2c(OCc3c(F)cccc3F)cccn2c1C(=O)N[C@H]1CCCNC1` [Example 60, 8-[(2,6-difluorobenzyl)oxy]-2-methyl-N-[(3S)-piperidin-3-yl]imidazo[1,2-a]pyridine-3-carboxamide dihydrochloride], the MEC amounted to 0.30 µM.
Consider `Cc1nc2c(OCc3c(F)cccc3F)cccn2c1C(=O)N[C@H]1CCNC1` [Example 61, 8-[(2,6-Difluorobenzyl)oxy]-2-methyl-N-[(3S)-pyrrolidin-3-yl]imidazo[1,2-a]pyridine-3-carboxamide], for which the MEC stood at 3.00 µM.
The figure for `CCCC[C@H](CN1CCOCC1)NC(=O)c1c(C)nc2c(OCc3c(F)cccc3F)cccn12` [Example 64, ent-8-[(2,6-Difluorobenzyl)oxy]-2-methyl-N-[(2R)-1-(morpholin-4-yl)hexan-2-yl]imidazo[1,2-a]-pyridine-3-carboxamide] is 0.30 µM; for `CCCC[C@H](CN1CCCC1)NC(=O)c1c(C)nc2c(OCc3c(F)cccc3F)cccn12` [Example 66, ent-8-[(2,6-difluorobenzyl)oxy]-2-methyl-N-[(2R)-1-(pyrrolidin-1-yl)hexan-2-yl]imidazo[1,2-a]-pyridine-3-carboxamide] it is 1.00 µM.
On to `CCCC[C@H](CN1CCN(C)CC1)NC(=O)c1c(C)nc2c(OCc3c(F)cccc3F)cccn12` [Example 67, ent-8-[(2,6-difluorobenzyl)oxy]-2-methyl-N-[(2R)-1-(4-methylpiperazin-1-yl)hexan-2-yl]imidazo[1,2-a]pyridine-3-carboxamide], for which the MEC was found to be 0.30 µM.
With `CCCC[C@H](CN(C)C)NC(=O)c1c(C)nc2c(OCc3c(F)cccc3F)cccn12` [Example 68, ent-8-[(2,6-difluorobenzyl)oxy]-N-[(2R)-1-(dimethylamino)hexan-2-yl]-2-methylimidazo[1,2-a]pyridine-3-carboxamide], the MEC stood at 0.30 µM.
Regarding `CCCC[C@H](CN(CC)CC)NC(=O)c1c(C)nc2c(OCc3c(F)cccc3F)cccn12` [Example 69, ent-N-[(2R)-1-(diethylamino)hexan-2-yl]-8-[(2,6-difluorobenzyl)oxy]-2-methylimidazo[1,2-a]-pyridine-3-carboxamide], the MEC turned out to be 1.00 µM.
Turning to `CCCC[C@H](CNCCOC)NC(=O)c1c(C)nc2c(OCc3c(F)cccc3F)cccn12` [Example 70, ent-8-[(2,6-difluorobenzyl)oxy]-N-{(2R)-1-[(2-methoxyethyl)amino]hexan-2-yl}-2-methylimidazo[1,2-a]pyridine-3-carboxamide], the MEC was determined as 1.00 µM.
Take `CCN1C2CCCC1CC(NC(=O)c1c(C)nc3c(OCc4c(F)cccc4F)cccn13)C2` (centres unmarked) [Example 71, 8-[(2,6-Difluorobenzyl)oxy]-N-(9-ethyl-9-azabicyclo[3.3.1]non-3-yl)-2-methylimidazo[1,2-a]-pyridine-3-carboxamide]: the MEC was determined as 0.30 µM.
For the compound `Cc1nc2c(OCc3c(F)cccc3F)cccn2c1C(=O)NCC(C)(C)N` [Example 72, N-(2-Amino-2-methylpropyl)-8-[(2,6-difluorobenzyl)oxy]-2-methylimidazo[1,2-a]pyridine-3-carboxamide], the MEC is 0.30 µM.
Regarding `Cc1nc2c(OCc3c(F)cccc3F)cc(Cl)cn2c1C(=O)NCC(C)(C)N` [Example 73, N-(2-Amino-2-methylpropyl)-6-chloro-8-[(2,6-difluorobenzyl)oxy]-2-methylimidazo[1,2-a]-pyridine-3-carboxamide], the MEC worked out at 0.30 µM.
For `Cc1nc2c(OCc3c(F)cccc3F)cccn2c1C(=O)NCCNc1ccc(F)cc1` [Example 79, 8-[(2,6-difluorobenzyl)oxy]-N-{2-[(4-fluoro-phenyl)amino]ethyl}-2-methylimidazo[1,2-a]-pyridine-3-carboxamide], the MEC came out at 1.00 µM.
As to `Cc1nc2c(OCc3c(F)cccc3F)cccn2c1C(=O)NC1CC(C)(C)NC(C)(C)C1` [Example 82, 8-[(2,6-Difluorobenzyl)oxy]-2-methyl-N-(2,2,6,6-tetramethylpiperidin-4-yl)imidazo[1,2-a]-pyridine-3-carboxamide], the MEC stood at 0.20 µM.
As to `Cc1nc2c(OCc3c(F)cccc3F)cccn2c1C(=O)NC1CC(C)(C)N(C)C(C)(C)C1` [Example 83, 8-[(2,6-difluorobenzyl)oxy]-2-methyl-N-(1,2,2,6,6-pentamethylpiperidin-4-yl)imidazo[1,2-a]pyridine-3-carboxamide], the MEC worked out at 0.10 µM.
Consider `Cc1nc2c(OCc3c(F)cccc3F)cccn2c1C(=O)NCCN(C)C` [Example 86, 8-[(2,6-difluorobenzyl)oxy]-N-[2-(dimethyl-amino)ethyl]-2-methylimidazo[1,2-a]pyridine-3-carboxamide], for which the MEC amounted to 2.00 µM.
Turning to `Cc1nc2c(OCc3c(F)cccc3F)cccn2c1C(=O)NCCCN(C)C` [Example 87, 8-[(2,6-difluorobenzyl)oxy]-N-[3-(dimethyl-amino)propyl]-2-methylimidazo[1,2-a]-pyridine-3-carboxamide], the MEC amounted to 1.00 µM.
Take `Cc1nc2c(OCc3c(F)cccc3F)cccn2c1C(=O)NCCN(C(C)C)C(C)C` [Example 88, 8-[(2,6-difluorobenzyl)oxy]-N-[2-(diisopropyl-amino)ethyl]-2-methylimidazo[1,2-a]pyridine-3-carboxamide]: the MEC came out at 1.00 µM.
